Assay results published in patent US8952025B2, “Multifunctional radical quenchers and their uses” (Arizona Board of Regents, A Body Corporate of the State of …, priority 2010, dated 2015).
“Also recorded” adds a separate entry of the source. Blank lines part the entries; values can stand above or below the compound they belong to.

Columns and labels:
CEM cells [1] = test: Reactive oxygen species (ROS) assay, DCFH-DA, DEM-treated cells; type: cell-based, human; details: for suppression of ROS (DCFH-DA): 0.25 μM for 15 hours, DEM 40 min, CCRF-CEM cells; for protection against ROS production (DCF fluorescence): 5 μM, pretreatment 4 or 24 h
Source text: Cellular ROS production can be monitored using 2′,7′-dichlorodihydrofluorescein diacetate (DCFH-DA) (LeBel et al. (1992) Chem. Res. Toxicol. 5, 227-231) (Molecular Probes, Eugene, Oreg., USA), a membrane permeable and oxidant-sensitive fluorescent dye. DCFH-DA is a non-fluorescent derivative of fluorescein that emits fluorescence after being oxidized by hydrogen peroxide and other ROS. The emitted fluorescence is directly proportional to the concentration of hydrogen peroxide. DCFH-DA is nonionic and nonpolar and is easily taken up by cells. Once inside the cell, DCFH-DA is hydrolyzed by cellular esterases to non-fluorescent DCFH which traps the dye in the cell. In the presence of ROS including hydrogen peroxide, DCFH is oxidized to the highly fluorescent compound dichlorofluorescein (DCF). The intracellular DCF fluorescence is used as an index of cellular ROS production.
Cellular oxidative stress was induced by pharmacological depletion of glutathione (GSH) using the chemical diethylmaleate (DEM). ROS production was assessed by monitoring DCF fluorescence. Leukemic CEM cells (ATCC®, catalogue number CRL-2264) were cultured in RPMI (GIBCO, Grand island, N.Y., USA) with 10% FCS, 2 mM glutamine (HyClone, South Logan, Utah, USA) and 1% penicillin-streptomycin mix antibiotics (Cellgro, Manassan, Va., USA) supplements. Cells were maintained in the log phase at a concentration of between 1×10^5 and 1×10^6 cells/mL. CEM cells (1×10^6 cell/mL) were plated (1 mL) in twelve well plate and treated with the invention compounds (final concentration 1 and 5 μM), and incubated for two hours at 37° C., 5% CO2. The compounds tested were prepared by first making stock solutions (2.5 mM) in dimethylsulfoxide (DMSO). Cells were treated with 5 mM DEM for 30 minutes and collected by centrifugation at 300×g for 3 min and then washed twice with Hanks' Balanced Salt Solution (HSSB) buffer (Sigma, St. Louis, Mo. USA). Cells were resuspended in HSSB buffer+10 mM glucose and incubated at 37° C. in the dark for 20 min with 10 μM DCFH-DA. Cells were collected by centrifugation at 300×g for 3 min and then washed twice with HSSB buffer. The samples were analyzed immediately by flow cytometry (Becton-Dickinson FACS Caliber), (Cell Quest software, BD Biosciences) using 488 nm excitation laser and FL1-H channel 538 nm emission filter. In each analysis, 10,000 events were recorded after cell debris were electronically gated out. Results obtained were verified by repeating experiments N=3 independent experiments. Authentic hydrogen peroxide was used as a positive control.

CEM cells [2] = test: Trypan blue cell viability assay, DEM-treated cells; type: cell-based, human; details: overnight incubation, then 5 mM DEM, 3 h
Description: Cell viability determined by trypan blue exclusion assay: This technique was used to assess the cytoprotective effects of the invention compounds in cultured cells pharmacologically treated to induce cell death by GSH depletion. DEM was used to deplete cellular GSH and induce oxidative stress. The viability of DEM-treated CEM cells was determined by their ability to exclude the dye trypan blue. Viable cells exclude trypan blue; whereas, non-viable cells take up the dye and stain blue. Briefly, CEM cells were grown in RPMI 1640 medium (GIBCO, Grand island, N.Y., USA) supplemented with 10% fetal calf serum, 2 mM glutamine (HyClone, South Logan, Utah, USA), 1% penicillin-streptomycin mix (Cellgro, Manassan, Va., USA). Cells were seeded at a density of 1×10^6 cells/mL and treated with different concentrations of the invention compounds. Cells were incubated at 37° C. in a humidified atmosphere of 5% CO2 in air for three hours with 5 mM DEM. Cell viability was determined by staining cells with 0.4% trypan blue using a hemacytometer. At least 500 cells were counted for each experimental group. At the time of assay, >95% of DEM-treated cells were trypan blue positive; whereas, in non-DEM treated control cell cultures >95% cells were viable. Cell viability was expressed as the percentage of control. Data are expressed as means±S.E.M (n=3).

CEM leukemia cells [3] = test: Mitochondrial membrane potential (Δψm) assay, TMRM, FACS; type: cell-based, human; details: pretreatment 0.5, 1 or 2.5 μM overnight, DEM
Description: Measurement of Mitochondrial Membrane Potential (Δψm)(FACS). For the determination of Δψm, CEM leukemia cells were pre-treated with or without the test compounds. The cells were treated with 5 mM DEM for 120 minutes, collected by centrifugation at 300×g for 3 minutes and then washed twice with phosphate buffered saline. The cells were re-suspended in HSSB buffer and incubated at 37° C. in the dark for 15 minutes with 250 nM TMRM (a cationic dye which accumulates within mitochondria in accordance with the Δψm Nernst potential). Cells were collected by centrifugation at 300×g for 3 minutes and then washed twice with phosphate buffered saline. The samples were analyzed immediately by flow cytometry using 488 nm excitation laser and the FL2-H channel. The results obtained were verified in three independent experiments. The protonophore FCCP (30 μM) was used to dissipate the chemiosmotic proton gradient (ΔμH^+) and served as a control for loss of Δψm. In each analysis, 10,000 events were recorded.

[4] = C11-BODIPY581/591 oxidation lipid peroxidation assay in liposomes; details: 10 mM AAPH, phospholipid liposomes, phosphate buffer, 40° C.
Description: To overcome the problem of spectral overlap using cis-parinaric acid, a fluorescence assay for lipid peroxidation using a lipophilic probe belonging to the BODIPY class of fluorescent dyes was used. C11-BODIPY^581/591 (4,4-difluoro-5(4-phenyl-1,3-butadienyl)-4-bora-3a,4a-diaza-s-indacene-3-propionic acid) fluorescence shifts from red to green upon oxidation. C11-BODIPY^581/591 (Molecular Probes, Eugene, Oreg., USA) stock solution concentrations were determined by measuring the absorption of C11-BODIPY^581/591 at 582 nm using a molar extinction coefficient of 140,000 mol^−1 cm^−1(R. P. Haugland, (1999) Handbook of Fluorescent Probes and Research Chemicals, Molecular Probes, Inc., Eugene, Oreg.). The lipid peroxidation inducer 2,2′-Azobis (2-amidino-propane dihydrochloride) (AAPH) and the antioxidant compound α-tocopherol were obtained from Sigma (St. Louis, Mo., USA). Phospholipid bilayers were prepared from 1-stearoyl-2-oleoyl-phosphatidylcholine (SOPC) and 1,2-dilinoleoyl-phosphatidylcholine (DLPC) and were purchased from Avanti® polar lipids, INC (Alabaster, Ala., USA).
Phosphotidylcholine (PC) liposomes were prepared as described before (Guey-Shuang et al. (1982) Lipids. 17, 403-413). Briefly, DLPC (25 mg) and SOPC (25 mg) were dissolved in chloroform and the solvent was removed by nitrogen evaporation (˜2 hours to give a thin film of PC in a round bottom flask. The lipid film was hydrated with 50 mL of 10 mM Tris-HCl (pH 7.4), 100 mM KCl, shaken and sonicated for 15 seconds. The liposomes obtained were filtered several times through 0.2 μM membrane filter.
C11 BODIPY^581/591 was incorporated into liposomes and oxidized by peroxyl radicals derived from the decomposition of AAPH in presence and absence of the compounds. […] Liposomes were pre-incubated for 10 min with 200 nM C11 BODIPY^581/591 to allow their incorporation into the lipid phase of the liposomes. After the addition of AAPH (10 mM) the decay of red fluorescence was followed at λ exc=570 nm, λ em=600 nm. Relative fluorescence units were normalized to 100% intensity. Results obtained were verified by repeating experiments N=3 independent experiments.

Human CEM leukemia cells = test: Live/Dead Viability/Cytotoxicity flow cytometry assay; type: cell-based; details: overnight incubation, then DEM 3 hours
Description: Cell viability and cytotoxicity were determined by simultaneous staining live and dead cells using a two-color fluorescence assay, the Live/Dead® Viability/Cytotoxicity Kit (Molecular Probes). This assay is used to measure two recognized parameters of cell viability, intracellular esterase activity and plasma integrity. The membrane-impermeant DNA dye ethidium homodimer-1 (EthD-1) was used to identify dead cells whose plasma membrane integrity was disrupted. The membrane-permeant dye calcein-AM was used to label live cells. It penetrates into the cells where it is metabolized by cytoplasmic esterases and becomes a fluorescent but membrane-impermeant probe which is retained in viable cells. Human CEM leukemia cells were incubated overnight in RPMI medium (control) and in the presence of test compound and then treated with DEM for 3 hours. Cells were stained with 0.2 μM calcein-AM and 0.4 μM EthD-1. After 15 minutes, flow cytometry analysis was carried out using excitation at 488 nm. The green-fluorescent (539 nm) FL1-H channel, live-cell population appears in the lower right quadrant and the red-fluorescent (585 nm) FL2-H channel dead-cell population appears in the upper left quadrant (FIG. 11). In each analysis, 10,000 events were recorded. Results obtained were verified in three independent experiments.

CEM leukemia cells [5] = test: C11-BODIPY581/591 oxidation in cell culture (lipid peroxidation); type: cell-based, human; details: 2.5 or 1 μM, pretreatment 4 or 24 hours, glutathione depleted
Description: Lipid peroxidation in CEM leukemia cells was detected by utilizing the oxidant-sensitive lipophilic probe C11 BODIPY^581/591. Briefly, CEM cells (5×10^5 cell/mL) were treated with the test compounds at final concentrations of 1 and 2.5 μM, and incubated at 37° C. for 4 or 24 h in a humidified atmosphere containing 5% CO2 in air. Cells were treated with 500 nM C11 BODIPY^581/591 in phenol red-free RPMI-1640 media and incubated at 37° C. in the dark for 30 minutes. The cells were washed twice with phosphate buffered saline and oxidative stress was induced with 5 mM DEM in phenol red-free RPMI-1640 media for 90 minutes. Treated cells were collected by centrifugation at 300×g for 3 minutes and then washed twice with phosphate buffered saline. Cells were resuspended in 250 μL of phosphate buffered saline and were analyzed by FACS (FACS Calibur flow cytometer, Becton Dickinson) to monitor the change in intensity of the C11 BODIPY^581/591-green (oxidized) fluorescence signal.

SMILES: COc1nc(N(C)C)nc(CCCCCCCCCCO)c1O [Compound D, 2-(dimethylamino)-4-(10-hydroxydecyl)-6-methoxypyrimidin-5-ol]
- suppression of ROS production (DCF fluorescence) (CEM cells [1]; pretreatment 0.5, 1 or 5 μM, DEM): most effective compound in suppressing ROS; also recorded: very effective in suppressing ROS
- maintaining cell viability (trypan blue exclusion) (CEM cells [2]): quite effective in maintaining cell viability following DEM treatment, with D being the most effective; also recorded: superior to idebenone in maintaining the viability of DEM-treated cells
- maintaining mitochondrial membrane potential Δψm (CEM leukemia cells [3]): the most effective in maintaining mitochondrial membrane potential; also recorded: very favorable properties

SMILES: COc1cc(C)c(O)c(CCCCCCCCCCO)n1 [Compound F, 2-(10-hydroxydecyl)-6-methoxy-4-methylpyridin-3-ol]
- melting point: 80 to 81 °C

SMILES: Cc1nc(N(C)C)nc(C)c1O [compound 12, 2-N,N-dimethylamino-5-hydroxy-4,6-dimethylpyrimidine]
- quenching of lipid peroxidation (retention of C11-BODIPY581/591 fluorescence) [4]: less active than its counterpart compound A

SMILES: CC(=O)Oc1c(C)nc2c(c1CC[C@](C)(O)CCC[C@H](C)CCC[C@H](C)CCCC(C)C)CCN2C [compound 35, 4-((3R,7R,11R)-3-hydroxy-3,7,11,15-tetramethylhexadecyl)-1,6-dimethyl-2,3-dihydro-1H-pyrrolo[2,3-b]pyridine-5-yl acetate]
- maintaining cell viability (trypan blue exclusion) (CEM cells [2]): both effective in maintaining cell viability following treatment with DEM, with the acetate of compound C being somewhat more effective

SMILES: Cc1nc2c(c(C)c1O)CCN2C [compound C redox core, 1,4,6-trimethyl-2,3-dihydro-1H-pyrrolo[2,3-b]pyridin-5-ol, reference compound]
- quenching of lipid peroxidation (retention of C11-BODIPY581/591 fluorescence) ([4]; listed as 1,4,6-trimethyl-2,3-dihydro-1H-pyrrolo[2,3-b]pyridin-5-ol): much less effective in the same assay system
- quenching of lipid peroxidation (retention of C11-BODIPY581/591 fluorescence) ([4]; listed as Compound C redox core): less effective than compound C itself
- protection against ROS production (DCF fluorescence) (CEM cells [1]): no protection
- maintaining cell viability (trypan blue exclusion) (CEM cells [2]): quite ineffective
- maintaining cell viability (Live/Dead kit, flow cytometry) (Human CEM leukemia cells): quite ineffective
- protection against lipid peroxidation in cells (C11-BODIPY581/591 green fluorescence) (CEM leukemia cells [5]): no protection

SMILES: Cc1c(C)c2c(c(C)c1O)CCC(C)(C(=O)O)O2 (stereo not shown) [trolox, reference compound]
- protection against ROS production (DCF fluorescence) (CEM cells [1]): no protection
- maintaining cell viability (trypan blue exclusion) (CEM cells [2]): quite ineffective
- maintaining cell viability (Live/Dead kit, flow cytometry) (Human CEM leukemia cells): quite ineffective
- protection against lipid peroxidation in cells (C11-BODIPY581/591 green fluorescence) (CEM leukemia cells [5]): no protection

Continued, in another order:

- melting point: 61 to 62 °C
SMILES: CCCCCc1nc(N(C)C)nc(C)c1O [Compound H, 2-(dimethylamino)-4-methyl-6-pentylpyrimidin-5-ol]

- melting point: 71 to 72 °C
SMILES: CCCCCCCCCCc1nc(N(C)C)nc(C)c1O [Compound I, 4-decyl-2-(dimethylamino)-6-methylpyrimidin-5-ol]
- suppression of ROS (DCFH-DA) (CEM cells [1]): most effective compounds at suppressing ROS in this assay; also recorded: especially effective

- melting point: 86 to 87 °C
SMILES: CCCCCCCCCCCCCCCCc1nc(N(C)C)nc(C)c1O [Compound J, 2-(dimethylamino)-4-hexadecyl-6-methylpyrimidin-5-ol]
- suppression of ROS (DCFH-DA) (CEM cells [1]): most effective compounds at suppressing ROS in this assay; also recorded: especially effective

- melting point: 103 to 104 °C
SMILES: Cc1nc(N)nc(CCCCCCCCCCO)c1O [Example 10, 2-amino-4-(10-hydroxydecyl)-6-methylpyrimidin-5-ol]
